# PubChem BioAssay (NCI)
#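 Tested at 5 concentrations; 48 h exposure; 96-well plates; endpoints linearly interpolated, else capped at highest concentration. TGI marks complete inhibition of growth.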
# Tests used:
# Experiment in all cases: NCI tumour cell line growth inhibition, 48 h
# 786-0 renal = system: 786-0 renal
# A549 NSCLC = system: A549 NSCLC
# BT-549 breast = system: BT-549 breast
# CAKI-1 renal = system: CAKI-1 renal
# CCRF-CEM leukemia = system: CCRF-CEM leukemia
# COLO 205 colon = system: COLO 205 colon
# DU-145 prostate = system: DU-145 prostate
# EKVX NSCLC = system: EKVX NSCLC
# HCC-2998 colon = system: HCC-2998 colon
# HCT-116 colon = system: HCT-116 colon
# HCT-15 colon = system: HCT-15 colon
# HL-60(TB) leukemia = system: HL-60(TB) leukemia
# HOP-62 NSCLC = system: HOP-62 NSCLC
# HOP-92 NSCLC = system: HOP-92 NSCLC
# HS 578T breast = system: HS 578T breast
# HT29 colon = system: HT29 colon
# IGROV1 ovarian = system: IGROV1 ovarian
# K-562 leukemia = system: K-562 leukemia
# KM12 colon = system: KM12 colon
# LOX IMVI melanoma = system: LOX IMVI melanoma
# M14 melanoma = system: M14 melanoma
# MALME-3M melanoma = system: MALME-3M melanoma
# MCF7 breast = system: MCF7 breast
# MDA-MB-231 breast = system: MDA-MB-231 breast
# MDA-MB-435 = system: MDA-MB-435
# MDA-N = system: MDA-N
# MOLT-4 leukemia = system: MOLT-4 leukemia
# NCI-H226 lung = system: NCI-H226 lung
# NCI-H23 lung = system: NCI-H23 lung
# NCI-H460 lung = system: NCI-H460 lung
# NCI-H522 lung = system: NCI-H522 lung
# NCI/ADR-RES ovarian = system: NCI/ADR-RES ovarian
# OVCAR-3 ovarian = system: OVCAR-3 ovarian
# OVCAR-4 ovarian = system: OVCAR-4 ovarian
# OVCAR-8 ovarian = system: OVCAR-8 ovarian
# PC-3 prostate = system: PC-3 prostate
# RPMI-8226 leukemia = system: RPMI-8226 leukemia
# RXF 393 renal = system: RXF 393 renal
# SF-268 CNS = system: SF-268 CNS
# SF-295 CNS = system: SF-295 CNS
# SF-539 CNS = system: SF-539 CNS
# SK-MEL-2 melanoma = system: SK-MEL-2 melanoma
# SK-MEL-28 melanoma = system: SK-MEL-28 melanoma
# SK-MEL-5 melanoma = system: SK-MEL-5 melanoma
# SK-OV-3 ovarian = system: SK-OV-3 ovarian
# SN12C renal = system: SN12C renal
# SNB-19 CNS = system: SNB-19 CNS
# SNB-75 CNS = system: SNB-75 CNS
# SR leukemia = system: SR leukemia
# SW-620 colon = system: SW-620 colon
# T-47D breast = system: T-47D breast
# TK-10 renal = system: TK-10 renal
# U251 CNS = system: U251 CNS
# UACC-257 melanoma = system: UACC-257 melanoma
# UACC-62 melanoma = system: UACC-62 melanoma
# UO-31 renal = system: UO-31 renal
# A498 renal = system: A498 renal
# ACHN renal = system: ACHN renal
# OVCAR-5 ovarian = system: OVCAR-5 ovarian
smiles,measurement,setting,value
CC(=O)OCC1CCC(=C2C(=O)OC(C)(C)OC2=O)N1 (centres undefined),TGI,786-0 renal,> 100 µM
same,TGI,A549 NSCLC,> 100 µM
same,TGI,BT-549 breast,> 100 µM
same,TGI,CAKI-1 renal,> 100 µM
same,TGI,CCRF-CEM leukemia,> 100 µM
same,TGI,COLO 205 colon,> 100 µM
same,TGI,DU-145 prostate,> 100 µM
same,TGI,EKVX NSCLC,> 100 µM
same,TGI,HCC-2998 colon,> 100 µM
same,TGI,HCT-116 colon,> 100 µM
same,TGI,HCT-15 colon,> 100 µM
same,TGI,HL-60(TB) leukemia,> 100 µM
same,TGI,HOP-62 NSCLC,> 100 µM
same,TGI,HOP-92 NSCLC,> 100 µM
same,TGI,HS 578T breast,> 100 µM
same,TGI,HT29 colon,> 100 µM
same,TGI,IGROV1 ovarian,> 100 µM
same,TGI,K-562 leukemia,> 100 µM
same,TGI,KM12 colon,> 100 µM
same,TGI,LOX IMVI melanoma,> 100 µM
same,TGI,M14 melanoma,> 100 µM
same,TGI,MALME-3M melanoma,> 100 µM
same,TGI,MCF7 breast,> 100 µM
same,TGI,MDA-MB-231 breast,> 100 µM
same,TGI,MDA-MB-435,> 100 µM
same,TGI,MDA-N,> 100 µM
same,TGI,MOLT-4 leukemia,> 100 µM
same,TGI,NCI-H226 lung,> 100 µM
same,TGI,NCI-H23 lung,> 100 µM
same,TGI,NCI-H460 lung,> 100 µM
same,TGI,NCI-H522 lung,> 100 µM
same,TGI,NCI/ADR-RES ovarian,> 100 µM
same,TGI,OVCAR-3 ovarian,> 100 µM
same,TGI,OVCAR-4 ovarian,> 100 µM
same,TGI,OVCAR-8 ovarian,> 100 µM
same,TGI,PC-3 prostate,> 100 µM
same,TGI,RPMI-8226 leukemia,> 100 µM
same,TGI,RXF 393 renal,> 100 µM
same,TGI,SF-268 CNS,> 100 µM
same,TGI,SF-295 CNS,> 100 µM
same,TGI,SF-539 CNS,> 100 µM
same,TGI,SK-MEL-2 melanoma,> 100 µM
same,TGI,SK-MEL-28 melanoma,> 100 µM
same,TGI,SK-MEL-5 melanoma,> 100 µM
same,TGI,SK-OV-3 ovarian,> 100 µM
same,TGI,SN12C renal,> 100 µM
same,TGI,SNB-19 CNS,> 100 µM
same,TGI,SNB-75 CNS,> 100 µM
same,TGI,SR leukemia,> 100 µM
same,TGI,SW-620 colon,> 100 µM
same,TGI,T-47D breast,> 100 µM
same,TGI,TK-10 renal,> 100 µM
same,TGI,U251 CNS,> 100 µM
same,TGI,UACC-257 melanoma,> 100 µM
same,TGI,UACC-62 melanoma,> 100 µM
same,TGI,UO-31 renal,> 100 µM
CN(CCNC(=O)c1[nH]nc2c1Cc1ccccc1-2)CCNC(=O)c1[nH]nc2c1Cc1ccccc1-2,TGI,786-0 renal,30.6 µM
same,TGI,A498 renal,36.8 µM
same,TGI,A549 NSCLC,39.8 µM
same,TGI,ACHN renal,32.5 µM
same,TGI,BT-549 breast,31 µM
same,TGI,CAKI-1 renal,31.3 µM
same,TGI,CCRF-CEM leukemia,42.9 µM
same,TGI,COLO 205 colon,31.9 µM
same,TGI,DU-145 prostate,32 µM
same,TGI,EKVX NSCLC,38.4 µM
same,TGI,HCC-2998 colon,29.4 µM
same,TGI,HCT-116 colon,32.8 µM
same,TGI,HCT-15 colon,33.2 µM
same,TGI,HL-60(TB) leukemia,40.7 µM
same,TGI,HOP-62 NSCLC,29.4 µM
same,TGI,HOP-92 NSCLC,34.6 µM
same,TGI,HS 578T breast,61.9 µM
same,TGI,HT29 colon,32.7 µM
same,TGI,IGROV1 ovarian,31.8 µM
same,TGI,K-562 leukemia,38.1 µM
same,TGI,KM12 colon,33.6 µM
same,TGI,LOX IMVI melanoma,38.5 µM
same,TGI,M14 melanoma,34.4 µM
same,TGI,MALME-3M melanoma,34.5 µM
same,TGI,MCF7 breast,44.9 µM
same,TGI,MDA-MB-231 breast,39.3 µM
same,TGI,MDA-MB-435,35.3 µM
same,TGI,MDA-N,31.2 µM
same,TGI,MOLT-4 leukemia,45.2 µM
same,TGI,NCI-H226 lung,35.8 µM
same,TGI,NCI-H23 lung,33.6 µM
same,TGI,NCI-H460 lung,33.5 µM
same,TGI,NCI-H522 lung,33.4 µM
same,TGI,NCI/ADR-RES ovarian,> 100 µM
same,TGI,OVCAR-3 ovarian,28.9 µM
same,TGI,OVCAR-4 ovarian,32.4 µM
same,TGI,OVCAR-5 ovarian,33.5 µM
same,TGI,OVCAR-8 ovarian,41.7 µM
same,TGI,PC-3 prostate,35.7 µM
same,TGI,RXF 393 renal,32.3 µM
same,TGI,SF-268 CNS,39.6 µM
same,TGI,SF-295 CNS,31 µM
same,TGI,SK-MEL-28 melanoma,35.2 µM
same,TGI,SK-MEL-5 melanoma,30.8 µM
same,TGI,SK-OV-3 ovarian,31.1 µM
same,TGI,SN12C renal,31.8 µM
same,TGI,SNB-19 CNS,31.4 µM
same,TGI,SNB-75 CNS,26.1 µM
same,TGI,SR leukemia,42.9 µM
same,TGI,SW-620 colon,49.4 µM
same,TGI,T-47D breast,44.3 µM
same,TGI,TK-10 renal,33.7 µM
same,TGI,U251 CNS,41.3 µM
same,TGI,UACC-257 melanoma,34.3 µM
same,TGI,UACC-62 melanoma,37.5 µM
same,TGI,UO-31 renal,34.7 µM
CC12CCC(C(=O)n3c1nc1ccccc13)C(C)(C)O2 (centres undefined),TGI,786-0 renal,> 100 µM
same,TGI,A549 NSCLC,> 100 µM
same,TGI,ACHN renal,> 100 µM
same,TGI,BT-549 breast,> 100 µM
same,TGI,CAKI-1 renal,> 100 µM
same,TGI,CCRF-CEM leukemia,> 100 µM
same,TGI,COLO 205 colon,> 100 µM
same,TGI,DU-145 prostate,> 100 µM
same,TGI,EKVX NSCLC,> 100 µM
same,TGI,HCC-2998 colon,> 100 µM
same,TGI,HCT-116 colon,> 100 µM
same,TGI,HCT-15 colon,> 100 µM
same,TGI,HL-60(TB) leukemia,> 100 µM
same,TGI,HOP-62 NSCLC,> 100 µM
same,TGI,HOP-92 NSCLC,> 100 µM
same,TGI,HS 578T breast,> 100 µM
same,TGI,HT29 colon,> 100 µM
same,TGI,IGROV1 ovarian,> 100 µM
same,TGI,K-562 leukemia,> 100 µM
same,TGI,KM12 colon,> 100 µM
same,TGI,LOX IMVI melanoma,> 100 µM
same,TGI,M14 melanoma,> 100 µM
same,TGI,MALME-3M melanoma,> 100 µM
same,TGI,MCF7 breast,> 100 µM
same,TGI,MDA-MB-231 breast,> 100 µM
same,TGI,MDA-MB-435,> 100 µM
same,TGI,MDA-N,> 100 µM
same,TGI,MOLT-4 leukemia,> 100 µM
same,TGI,NCI-H226 lung,> 100 µM
same,TGI,NCI-H23 lung,> 100 µM
same,TGI,NCI-H522 lung,> 100 µM
same,TGI,NCI/ADR-RES ovarian,> 100 µM
same,TGI,OVCAR-3 ovarian,> 100 µM
same,TGI,OVCAR-4 ovarian,> 100 µM
same,TGI,OVCAR-5 ovarian,> 100 µM
same,TGI,OVCAR-8 ovarian,> 100 µM
same,TGI,PC-3 prostate,> 100 µM
same,TGI,RPMI-8226 leukemia,> 100 µM
same,TGI,RXF 393 renal,> 100 µM
same,TGI,SF-268 CNS,> 100 µM
same,TGI,SF-295 CNS,> 100 µM
same,TGI,SF-539 CNS,> 100 µM
same,TGI,SK-MEL-2 melanoma,> 100 µM
same,TGI,SK-MEL-28 melanoma,> 100 µM
same,TGI,SK-MEL-5 melanoma,> 100 µM
same,TGI,SK-OV-3 ovarian,> 100 µM
same,TGI,SN12C renal,> 100 µM
same,TGI,SNB-19 CNS,> 100 µM
same,TGI,SNB-75 CNS,> 100 µM
same,TGI,SR leukemia,> 100 µM
same,TGI,SW-620 colon,> 100 µM
same,TGI,T-47D breast,> 100 µM
same,TGI,TK-10 renal,> 100 µM
same,TGI,U251 CNS,> 100 µM
same,TGI,UACC-257 melanoma,> 100 µM
same,TGI,UACC-62 melanoma,> 100 µM
same,TGI,UO-31 renal,> 100 µM
